Read-outs that look alike come from different tables or passages of the source.
Columns and labels:
[1] = target: T1, nicotinic α4β2 receptor (α4β2 nAChR) (Rattus norvegicus, UniProt P09483+P12390); experiment: radioligand competition with 3H-cytisine, rat brain homogenate; format: binding; conditions: read-out: Ki ^a; cited from earlier work
[2] = target: T1, nicotinic α4β2 receptor (α4β2 nAChR); experiment: as above; format: binding

Structure (SMILES) | Ki [1] | Ki [2]
FCCCc1cncc(OC[C@@H]2CCCN2)c1 [compound 3, Nifrolidine] | 0.8 nM | –
FCCCc1cncc(OC[C@@H]2CCN2)c1 [compound 4, 3-(2-(S)-azetidinylmethoxy)-5-(3′-fluoropropyl)pyridine] | – | 0.67 nM

From PMC3217100 (2011)
